Experimental data reported in patent US20070292906A1, “ASSAY FOR MEASURING ACYLTRANSFERASE ACTIVITY” (Bristol-Myers Squibb Company, priority 2006, published 2007).

How the values were obtained:
human MGAT3 = target: T1, human MGAT3 (Homo sapiens, UniProt Q86VF5); assay: substrate concentration titration in TLC assay, MGAT3; type: biochemical; conditions: Michaelis Menton fit, duplicate
T1 construct: made in house; host or cells: Sf9 insect cells (baculovirus), used as membrane extracts
T1 sequence (Q86VF5 1-341): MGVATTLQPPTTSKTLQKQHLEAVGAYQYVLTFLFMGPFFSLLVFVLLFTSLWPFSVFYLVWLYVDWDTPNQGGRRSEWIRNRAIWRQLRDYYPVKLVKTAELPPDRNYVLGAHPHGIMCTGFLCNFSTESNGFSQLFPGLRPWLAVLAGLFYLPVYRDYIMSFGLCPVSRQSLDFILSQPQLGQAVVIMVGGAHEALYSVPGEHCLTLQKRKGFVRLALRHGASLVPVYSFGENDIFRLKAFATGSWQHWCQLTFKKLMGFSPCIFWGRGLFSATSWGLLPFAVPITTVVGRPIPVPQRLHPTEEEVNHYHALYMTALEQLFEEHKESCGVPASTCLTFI
Experimental: (§1) The data shown in FIG. 1B correspond to a TLC plate assay and various substrates that could be used in the assay. Aliquots of membrane extracts (30 μg) derived from either wild type baculovirus infected Sf9 cells (WT) (lanes 4,5) infected with recombinant human DGAT1 baculovirus (DGAT1) (lanes 6-8), or with recombinant human MGAT3 baculovirus (MGAT3) (lanes 1-3), were subjected to enzyme reactions in Buffer A (150 mM potassium phosphate buffer, pH 7.4) with 50 μM [^14C]oleoyl-CoA (40,000 d.p.m./nmol specific activity) as the acyl donor, and 100 μM 1,2-dioleoylglycerol (DOG), or 2-monooleoylglycerol (2-MOG) as the acyl acceptor (delivered by acetone, final vehicle concentration at 2%).
(§2) Assays were carried out for 10 minutes as described in (Cheng et al., Biochem J. 2001 Nov. 1;359 (Pt 3):707-14.). The products were resolved by TLC in a solvent comprising hexane: ether: acetic acid in a ration of 170:30:1, respectively. The products were visualized by a Phosphoimage exposure. […]
(§3) Briefly, substrate efficiency was determined from results obtained using a TLC acyltransferase assay. […] The enzymatic products were quantified and the kinetic parameters Vmax and Km were derived using the Michaelis Menton Equation as applied by Prism® software. […]

human DGAT1 = target: T2, human DGAT1 (Homo sapiens, UniProt O75907); assay: substrate concentration titration in TLC assay, DGAT1; type: biochemical; conditions: Michaelis Menton fit, duplicate
T2 construct: made in house; host or cells: Sf9 insect cells (baculovirus), used as membrane extracts
T2 sequence (O75907 1-488): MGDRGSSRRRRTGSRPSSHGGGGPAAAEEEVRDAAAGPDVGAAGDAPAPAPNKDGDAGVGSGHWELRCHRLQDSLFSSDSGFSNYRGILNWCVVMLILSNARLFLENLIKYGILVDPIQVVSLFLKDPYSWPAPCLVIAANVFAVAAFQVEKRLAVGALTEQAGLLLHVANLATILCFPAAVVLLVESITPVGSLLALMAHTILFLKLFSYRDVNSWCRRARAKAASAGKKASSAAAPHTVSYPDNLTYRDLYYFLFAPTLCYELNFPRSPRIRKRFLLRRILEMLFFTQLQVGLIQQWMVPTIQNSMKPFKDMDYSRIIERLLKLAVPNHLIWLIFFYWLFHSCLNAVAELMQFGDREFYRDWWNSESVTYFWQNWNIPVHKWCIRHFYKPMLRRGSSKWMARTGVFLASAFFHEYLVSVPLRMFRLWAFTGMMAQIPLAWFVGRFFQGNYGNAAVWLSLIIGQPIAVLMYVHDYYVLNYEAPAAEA
Experimental: as §1, §2, §3

CCCCCCCC/C=C\CCCCCCCC(=O)OC(CO)CO [MOG, 2-monooleoylglycerol]
Km with MOG relative to 1,2-sn-dioleoylglycerol (human MGAT3): significantly reduced | Vmax with MOG relative to 1,2-sn-dioleoylglycerol (human MGAT3): more than 50 fold | Km with MOG relative to 1,2-sn-dioleoylglycerol (human DGAT1): significantly reduced | Vmax with MOG relative to 1,2-sn-dioleoylglycerol (human DGAT1): more than 20 fold
